Earlier results, collected in patent US8664239B2, “Tacrolimus for improved treatment of transplant patients” (Veloxis Pharmaceuticals A/S, priority 2007, dated 2014).
Like-named read-outs stand apart in the source and are kept apart here.

What was measured:
[1] = not given; remark: listed apart in the source

## C=CC[C@@H]1/C=C(\C)C[C@H](C)C[C@H](OC)[C@H]2O[C@@](O)(C(=O)C(=O)N3CCCC[C@H]3C(=O)O[C@H](/C(C)=C/[C@@H]3CC[C@@H](O)[C@H](OC)C3)[C@H](C)[C@@H](O)CC1=O)[C@H](C)C[C@@H]2OC [Tacrolimus]
After oral administration
  bioavailability: ≤ 20%
Oral administration, healthy subjects or kidney or liver transplanted patients
  mean time-to-peak concentration (tmax): 1 to 2 h
[1]; in chloroform
  solubility: very soluble
[1]; in ethanol
  solubility: freely soluble
[1]; in methanol
  solubility: very soluble
[1]; in water
  solubility: practically insoluble
